Laboratory results as given in US6576639B1, “Compounds for the inhibition of farnesyl protein transferase” (Schering Corporation, priority 1997, dated 2003).

Columns and labels:
[1] = molecular target: farnesyl protein transferase (Homo sapiens, UniProt P49354+P49356); assay: FPT IC50 (inhibition of farnesyl protein transferase, in vitro enzyme assay, per WO 95/10516); assay type: biochemical; conditions: for IC50: in vitro enzyme assay
Experimental: (§1) FPT IC50 (inhibition of farnesyl protein transferase, in vitro enzyme assay) was determined following the assay procedures described in WO 95/10516, published Apr. 20, 1995. GGPT IC50 (inhibition of geranylgeranyl protein transferase, in vitro enzyme assay), COS Cell IC50 (Cell-Based Assay), Cell Mat Assay, and anti-tumor activity (in vivo anti-tumor studies) could be determined by the assay procedures described in WO 95/10516. The disclosure of WO 95/10516 is incorporated herein by reference thereto.

COS Cell = COS Cell IC50 (Cell-Based Assay, per WO 95/10516)
Experimental: as §1

Human tumor cells = assay: Soft Agar Assay (anchorage-independent growth); assay type: cell-based
Experimental: Anchorage-independent growth is a characteristic of tumorigenic cell lines. Human tumor cells can be suspended in growth medium containing 0.3% agarose and an indicated concentration of a farnesyl transferase inhibitor. The solution can be overlayed onto growth medium solidified with 0.6% agarose containing the same concentration of farnesyl transferase inhibitor as the top layer. After the top layer is solidified, plates can be incubated for 10-16 days at 37° C. under 5% CO2 to allow colony outgrowth. After incubation, the colonies can be stained by overlaying the agar with a solution of MTT (3-[4,5-dimethyl-thiazol-2-yl]-2,5-diphenyltetrazolium bromide, Thiazolyl blue) (1 mg/mL in PBS). Colonies can be counted and the IC50's can be determined.

human FPT = molecular target: T1, human FPT (Homo sapiens, UniProt P49354+P49356); assay: FPT pM IC50 Assay; assay type: biochemical; conditions: 30 pM human FPT, biotin-CVLS substrate, 37° C., 1 hour
T1 construct: made in house; host or cells: Baculovirus/Sf-9
Experimental: The enzymatic reaction is performed in 50 mM Tris, 5 μM ZnCl2, 5 mM MgCl2, 0.01% Triton X-100, 5 mM dithiolthreitol (DTT), pH 7.7 (Buffer R) at 37° C. for 1 hour. The purified human FPT (>95% pure) was derived from a Baculovirus/Sf-9 expression system. The peptide substrate used was biotin-CVLS (SynPep Corp., Dublin, Calif.) and (1-^3H)-FPP (21.5 Ci/mmol) was obtained from New England Nuclear Life Science Products (Boston, Mass.). Compounds were initially dissolved to a final concentration of 4 mg/ml in 100% DMSO and then to 0.25 μg/ml in 100% DMSO. Subsequent dilutions of the compound were performed in Buffer R.
The enzymatic reaction is performed in a final volume of 100 μl. Reactions are carried out in a 96 well plate format. […] The reaction is stopped using 150 μl of the Stop Solution consisting of 1.3 mg/ml scintillation beads (strepavidin-coated scintillation proximity beads from Amersham (Arlington Heights, Ill.), 250 mM EDTA, pH 8.0 and 0.5% BSA. The radioactivity is measured after 20 minutes at room temperature.
Compounds are evaluated for their ability to inhibit the reaction by measuring the concentration-dependent percent inhibition of the reaction. […] The enzymatic activity was recorded by measuring the CPM/well using a Wallac 1204 Betaplate BS liquid scintillation counter. […]

farnesyl protein transferase, sequence (P49356 whole entry, one chain of several): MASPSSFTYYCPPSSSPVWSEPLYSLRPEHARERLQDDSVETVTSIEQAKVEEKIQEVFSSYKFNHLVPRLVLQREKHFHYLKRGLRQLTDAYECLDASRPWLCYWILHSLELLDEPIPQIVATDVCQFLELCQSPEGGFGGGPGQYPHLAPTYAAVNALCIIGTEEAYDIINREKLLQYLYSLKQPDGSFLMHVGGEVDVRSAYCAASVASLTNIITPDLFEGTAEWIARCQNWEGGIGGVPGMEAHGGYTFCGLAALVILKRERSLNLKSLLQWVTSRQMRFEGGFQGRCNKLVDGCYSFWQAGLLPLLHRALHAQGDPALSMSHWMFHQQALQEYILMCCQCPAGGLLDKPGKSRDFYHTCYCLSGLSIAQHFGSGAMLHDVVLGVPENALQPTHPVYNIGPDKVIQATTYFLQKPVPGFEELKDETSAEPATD

SMILES: NC(=O)N1CCC(CC(=O)N2CCN(C3c4ccc(Cl)cc4CCc4cc(Br)c[n+]([O-])c43)CC2)CC1 (racemic) [Example 9, (±) 4-[2-[(3-Bromo-8-chloro-6,11-dihydro-5H-benzo[5,6]cyclohepta [1,2-b]pyridin-11-yl)-1-piperazinyl]-2-oxoethyl]-1-piperidinecarboxamide N1-oxide]
- IC50 [1]: 23 nM

SMILES: NC(=O)N1CCC(CC(=O)N2CCC(C3c4c(Br)cc(Cl)cc4CCc4cc(Br)c[n+]([O-])c43)CC2)CC1 (centres unmarked) [Compound 54.0]
- FPT percent inhibition ([1]; @150 nM): 42%

SMILES: NC(=O)N1CCC(CC(=O)N2CCC([C@@H]3c4c(Br)cc(Cl)cc4CCc4cc(Br)c[n+]([O-])c43)CC2)CC1 [Example 2, (+)-4-[2-[4-(3,10-Dibromo-8-chloro-6,11-dihydro-5H-benzo [5,6]cyclohepta[1,2-b]pyridin-11(R)-YL)-1-piperidinyl]-2-oxoethyl]-1-piperidinecarboxamide N-oxide]
- IC50 (COS Cell): 9 nM
- IC50 [1]: 1.4 nM
- IC50 (Human tumor cells): 45 nM

SMILES: O=C(Cc1cc[n+]([O-])cc1)N1CCC([C@@H]2c3c(Br)cc(Cl)cc3CCc3cc(Br)c[n+]([O-])c32)CC1 [Example 3]
- IC50 (COS Cell): 11.5 nM
- IC50 [1]: 0.7 nM
- IC50 (Human tumor cells): 25 nM

SMILES: NC(=O)N1CCC(CC(=O)N2CCC([C@H]3c4ccc(Cl)c(Br)c4CCc4cc(Br)c[n+]([O-])c43)CC2)CC1 [Example 4]
- IC50 [1]: 18 nM

SMILES: O=C(Cc1cc[n+]([O-])cc1)N1CCC([C@H]2c3ccc(Cl)c(Br)c3CCc3cc(Br)c[n+]([O-])c32)CC1 [Example 5, (−)-4-(8-Chloro-3,7-Dibromo-6,11-Dihydro-5H-Benzo[5,6]Cyclohepta [1,2-b]Pyridin-11-yl)-1-(4-Pyridinylacetyl)Piperidine N1-Oxide, N4-Oxide]
- IC50 [1]: 28 nM

SMILES: O=C(Cc1cc[n+]([O-])cc1)N1CCC(C2c3ccc(Cl)cc3C=Cc3cc(Br)c[n+]([O-])c32)CC1 (centres unmarked) [Example 6, 4-(3-Bromo-8-Chloro-11H-Benzo[5.6]Cyclohepta[1,2-b]Pyridi-11-yl) -1-(4-Pyridinylacetyl)Piperidine N1-Oxide, N4-Oxide]
- IC50 [1]: 63 nM

SMILES: O=C(Cc1cc[n+]([O-])cc1)N1CCN([C@@H]2c3ccc(Cl)cc3CCc3cc(Br)c[n+]([O-])c32)CC1 [Example 7]
- IC50 (COS Cell): 85 nM
- IC50 [1]: 6.3 nM
- IC50 (human FPT): 440 pM
- IC50 (Human tumor cells): 183 nM

SMILES: O=C(Cc1cc[n+]([O-])cc1)N1CCN([C@H]2c3ccc(Cl)cc3CCc3cc(Br)c[n+]([O-])c32)CC1 [Example 8]
- FPT percent inhibition ([1]; @ 170 (concentration unit not given)): 39% @ 170

SMILES: NC(=O)N1CCC(CC(=O)N2CCN([C@@H]3c4ccc(Cl)cc4CCc4cc(Br)c[n+]([O-])c43)CC2)CC1 [Example 10, (+) 4-[2-[(3-Bromo-8-chloro-6,11-dihydro-5H-benzo[5,6]cyclo-hepta [1,2-b]pyridin-11R-yl)-1-piperazinyl]-2-oxoethyl]-1-piperidinecarboxamide N1-oxide]
- IC50 [1]: 12 nM

SMILES: NC(=O)N1CCC(CC(=O)N2CCN([C@H]3c4ccc(Cl)cc4CCc4cc(Br)c[n+]([O-])c43)CC2)CC1 [Example 11, (−) 4-[2-[(3-Bromo-8-chloro-6,11-dihydro-5H-benzo[5,6]cyclo-hepta [1,2-b]pyridin-11S-yl)-1-piperazinyl]-2-oxoethyl]-1-piperidinecarboxamide N1-oxide]
- FPT percent inhibition ([1]; @ 160 (concentration unit not given)): 24% @ 160

SMILES: NC(=O)N1CCC(CC(=O)N2CCC([C@@H]3c4ccc(Cl)cc4CCc4cc(Br)c[n+]([O-])c43)CC2)CC1 [Example 12]
- IC50 [1]: 35 nM
- melting point: 146.8 to 147.4 °C

SMILES: NC(=O)N1CCC(CC(=O)N2CCC([C@H]3c4ccc(Cl)cc4CCc4cc(Br)c[n+]([O-])c43)CC2)CC1 [Example 13]
- IC50 [1]: 174 nM
- melting point: 120 to 121 °C

SMILES: O=C(Cc1cc[n+]([O-])cc1)N1CCC([C@H]2c3ccc(Cl)cc3C=Cc3cc(Br)c[n+]([O-])c32)CC1 [Example 14]
- FPT percent inhibition ([1]; @ 180 (concentration unit not given)): 25% @ 180
- melting point: 109 to 110 °C

SMILES: O=C(Cc1cc[n+]([O-])cc1)N1CCC([C@@H]2c3ccc(Cl)cc3C=Cc3cc(Br)c[n+]([O-])c32)CC1 [Example 15]
- IC50 [1]: 19 nM
- melting point: 125.5 to 126.3 °C
